# Reference: US20150147403A1, “DERMATOLOGICAL COMPOSITION COMPRISING OLEOSOMES AND RETINOIDS, PROCESS FOR PREPARING THE SAME AND USE THEREOF” (GALDERMA RESEARCH & DEVELOPMENT, priority 2012, published 2015)
# Legend:
# Format in all cases: physicochemical
# [1] = Solubility of compound A in various oily and aqueous solvents
# From the text: (§1) The object of this preformulation study is to identify lipophilic and hydrophilic solvents in which compound A is soluble, and in which it is chemically stable.
# [2] = Stability of compound A in solvents (HPLC-UV); conditions: RT / 40° C.
# Procedure: as §1
# The stability of the active agent was evaluated by liquid chromatography coupled to a UV detector (HPLC-UV).
# [3] = Stability study on compositions 1′ and 2: assay of compound A by HPLC; conditions: under all the temperature conditions (4° C., RT, 40° C.); dissolved in the aqueous phase or in the oily liquid globules
# Procedure: Composition 1′ of Example 2 and composition 2 of Example 3 were placed under various stability conditions: 4° C., room temperature and 40° C., for 3 months.
# Compound A was assayed by HPLC. The results are expressed in mg/g.
# [4] = in Caprylic/capric acid triglycerides (Miglyol 812N)
# [5] = in PPG-15 stearyl ether (Arlamol E PSE15)
# [6] = in Propylene glycol / absolute ethanol (20/80)
smiles,measurement,setting,value
"CC(C)(C)c1cc(-c2cc(-c3ccc(C(=O)O)cc3)ccc2OCCO)ccc1N1CCCC1 [Compound A, 3″-tert-Butyl-4′-(2-hydroxyethoxy)-4″-pyrrolidin-1-yl-[1,1′;3′,1″]-terphenyl-4-carboxylic acid]",Maximum solubility (% m/m),[1]; in Absolute ethanol,0.92 % m/m
same,Maximum solubility (% m/m),[1]; [4],0.019 % m/m
same,Maximum solubility (% m/m),[1]; [5],0.292 % m/m
same,Maximum solubility (% m/m),[1]; in Phenoxyethanol,1.957 % m/m
same,Maximum solubility (% m/m),[1]; in Propylene glycol,0.11 % m/m
same,Maximum solubility (% m/m),[1]; [6],1.08 % m/m
same,Stability,[2]; in Absolute ethanol,3 months RT / 40 °C
same,Stability,[2]; [4],6 months RT / 40 °C
same,Stability,[2]; [5],6 months RT / 40 °C
same,Stability,[2]; in Phenoxyethanol,6 months RT / 40 °C
same,Stability,[2]; [6],6 months RT / 40 °C
same,Stability,[2]; in Propylene glycol,3 months RT / 40 °C
same,Chemical stability of compound A in the compositions,[3],3 months
